Results published in patent US7141252B2, “Composition for the treatment of burns, sunburns, abrasions, ulcers and cutaneous irritation” (priority 2003, dated 2006).

Test system: burns
Assay: Treating burns with different combinations of the ingredients
Format: in vivo
Details: topical treatment of burns, comparison of ingredient combinations

OB(O)O [boric acid]
healing of burns: appeared to advance healing without infection but only in a very limited fashion
